Active and inactive are the calls of the source. The rule behind the calls is not given here.
Tests used:
[1] = test system: Vesicular stomatitis virus; assay: Antiviral activity against vesicular stomatitis virus; format: functional, organism-based
Vaccinia virus = assay: Antiviral activity against vaccinia virus; format: functional, organism-based; conditions: Orthopoxvirus vaccinia
Reovirus sp. = assay: Antiviral activity against Reovirus; format: functional, organism-based
[2] = test system: Human immunodeficiency virus 1; assay: Antiviral activity against HIV1; format: functional, organism-based
[3] = Cytotoxicity against human MT4 cells after 96 hrs by MTT method; format: cell-based
[4] = test system: Bovine viral diarrhea virus 1; assay: Antiviral activity against BVDV NADL in MDBK cells assessed as protection from virus-induced cytopathogenicity by MTT method; format: functional, organism-based; conditions: Bovine viral diarrhea virus isolates and strains
Yellow fever virus = assay: Antiviral activity against YFV in BHK cells assessed as protection from virus-induced cytopathogenicity by MTT method; format: functional, organism-based
[5] = test system: Respiratory syncytial virus; assay: Antiviral activity against RSV A2 in VERO76 cells assessed as reduction of plaque number by MTT method; format: functional, organism-based; conditions: human respiratory syncytial virus, A2, Vero 76
Poliovirus 1 = assay: Antiviral activity against Human poliovirus 1 Sabin; format: functional

| SMILES | Activity [1] | Activity (Vaccinia virus) | Activity (Reovirus sp.) | Activity [2] | CC50 at 96 h [3] | EC50 [4] | EC50 (Yellow fever virus) | EC50 [5] | Activity (Poliovirus 1) |
| --- | --- | --- | --- | --- | --- | --- | --- | --- | --- |
| O=c1ccc2ccc(O)c(CN3CCOCC3)c2o1 | inactive | inactive | inactive | inactive | > 100 µM | > 100 µM | > 100 µM | > 100 µM | inactive |
| COCCN(CCOC)c1oc2cc(OC)ccc2c(=O)c1Cc1c(OC(C)=O)ccc2c(C)cc(=O)oc12 | inactive | inactive | inactive | inactive | > 100 µM | 61 µM | > 100 µM | 5 µM | inactive |
| CCCOc1ccc2c(C)cc(=O)oc2c1CN1CCN(c2ccc(C(C)=O)cc2)CC1 | inactive | inactive | inactive | inactive | 25 µM | 8 µM | > 100 µM | > 100 µM | inactive |
| CCOC(=O)N1CCN(Cc2c(OC(=O)c3ccccc3)ccc3ccc(=O)oc23)CC1 | inactive | inactive | inactive | inactive | > 100 µM | > 100 µM | > 100 µM | 90 µM | inactive |
| CN1CCN(Cc2c(O)ccc3ccc(=O)oc23)CC1 | inactive | inactive | inactive | inactive | > 100 µM | > 100 µM | > 100 µM | > 100 µM | inactive |
| C[C@@]1(O)[C@H](O)[C@@H](CO)O[C@H]1n1cnc2c(=O)[nH]c(N)nc21 [2'-B-METHYL-GUANOSINE] | inactive | inactive | inactive | inactive | > 100 µM | 4 µM | 1 µM | > 100 µM | inactive |
| Cc1cc(=O)oc2c(CN3CCN(C/C=C/c4ccccc4)CC3)c(OC(=O)c3ccccc3)ccc12 | inactive | inactive | inactive | inactive | 45 µM | 19 µM | > 100 µM | > 80 µM | inactive |
| O=c1ccc2ccc(O)c(CN3CCN(Cc4ccc5c(c4)OCO5)CC3)c2o1 | inactive | inactive | inactive | inactive | 13 µM | > 100 µM | > 100 µM | > 100 µM | inactive |
| Cc1cc(=O)oc2c(CN(C)CC(=O)O)c(O)ccc12 | inactive | inactive | inactive | inactive | > 100 µM | > 100 µM | > 100 µM | > 100 µM | inactive |
| CC(=O)c1ccc(N2CCN(Cc3c(O)ccc4c(C)cc(=O)oc34)CC2)cc1 | inactive | inactive | inactive | inactive | 59 µM | > 100 µM | > 100 µM | > 100 µM | inactive |
| COc1ccc2c(=O)c(Cc3c(OC(C)=O)ccc4ccc(=O)oc34)c(N3CCCC3)oc2c1 | inactive | inactive | inactive | inactive | > 100 µM | > 100 µM | > 100 µM | > 100 µM | inactive |
| CCC(=O)Oc1ccc2ccc(=O)oc2c1Cc1c(C)[nH]c2ccccc12 | inactive | inactive | inactive | inactive | 80 µM | > 51 µM | > 100 µM | > 100 µM | inactive |
| O=C(Oc1ccc2ccc(=O)oc2c1CN1CCc2ccccc2C1)c1ccccc1 | inactive | inactive | inactive | inactive | > 100 µM | > 100 µM | > 100 µM | 1 µM | inactive |
| Cc1cc(=O)oc2c(CN3CCN(C)CC3)c(O)ccc12 | inactive | inactive | inactive | inactive | > 100 µM | > 100 µM | > 100 µM | > 100 µM | inactive |
| CC(=O)Oc1ccc2ccc(=O)oc2c1Cc1c(C)[nH]c2ccccc12 | inactive | inactive | inactive | inactive | 62 µM | > 86 µM | > 73 µM | > 100 µM | inactive |
| CC(=O)Oc1ccc2ccc(=O)oc2c1Cc1c(N(C)C)oc2ccc3ccccc3c2c1=O | inactive | inactive | inactive | inactive | 80 µM | > 48 µM | > 52 µM | > 30 µM | inactive |
| CCOC(=O)N1CCN(Cc2c(O)ccc3c(C)cc(=O)oc23)CC1 | inactive | inactive | inactive | inactive | > 100 µM | > 100 µM | > 100 µM | ≥ 100 µM | inactive |
| COCCN(CCOC)c1oc2cc(OC)ccc2c(=O)c1Cc1c(OC(C)=O)ccc2ccc(=O)oc12 | inactive | inactive | inactive | inactive | > 100 µM | > 100 µM | > 100 µM | 7 µM | inactive |
| O=c1ccc2ccc(O)c(CN3CCN(C/C=C/c4ccccc4)CC3)c2o1 | inactive | inactive | inactive | inactive | 5 µM | > 24 µM | > 59 µM | > 100 µM | inactive |
| CCC(=O)Oc1ccc2c(C)cc(=O)oc2c1Cc1c(-c2ccccc2)[nH]c2ccccc12 | inactive | inactive | inactive | inactive | 38 µM | 7 µM | > 27 µM | > 100 µM | inactive |
| CC(=O)Oc1ccc2ccc(=O)oc2c1Cc1c(N2CCCCC2)oc2ccc3ccccc3c2c1=O | inactive | inactive | inactive | inactive | > 100 µM | 59 µM | 77 µM | 40 µM | inactive |
| CCN(CC)c1oc2cc(OC(C)=O)ccc2c(=O)c1Cc1c(OC(C)=O)ccc2c(C)cc(=O)oc12 | inactive | inactive | inactive | inactive | 44 µM | > 100 µM | > 100 µM | 11 µM | inactive |
| COCCN(CCOC)c1oc2ccc3ccccc3c2c(=O)c1Cc1c(OC(C)=O)ccc2ccc(=O)oc12 | inactive | inactive | inactive | inactive | > 100 µM | 78 µM | 100 µM | 5 µM | inactive |
| CCC(=O)Oc1ccc2c(C)cc(=O)oc2c1Cc1c(C)[nH]c2ccccc12 | inactive | inactive | inactive | inactive | 31 µM | > 87 µM | > 100 µM | 45 µM | inactive |
| CC(=O)Oc1ccc2ccc(=O)oc2c1Cc1c(-c2ccccc2)[nH]c2ccccc12 | inactive | inactive | inactive | inactive | > 100 µM | > 57 µM | > 100 µM | > 100 µM | inactive |
| CCN(CC)c1oc2cc(OC)ccc2c(=O)c1Cc1c(O)ccc2c(C)cc(=O)oc12 | inactive | inactive | inactive | inactive | > 100 µM | > 100 µM | > 100 µM | > 100 µM | inactive |
| CCC(=O)Oc1[nH]c2ccccc2c1Cc1c(OC(C)=O)ccc2ccc(=O)oc12 | inactive | inactive | inactive | inactive | 67 µM | > 64 µM | > 72 µM | 60 µM | inactive |
| CCCOc1ccc2c(C)cc(=O)oc2c1CN1CCc2ccccc2C1 | inactive | inactive | inactive | inactive | > 100 µM | 20 µM | > 100 µM | > 93 µM | inactive |

— ChEMBL document CHEMBL1144007, “Activity of Mannich bases of 7-hydroxycoumarin against Flaviviridae” (Bioorg Med Chem, 2008)
